{"source": "paper PMC8262356", "about": "“SLC26A6-selective inhibitor identified in a small-molecule screen blocks fluid absorption in small intestine” (JCI Insight, 2021)", "key": {"PAT1 (murine slc26a6)": {"molecular_target": "T1, PAT1 (murine slc26a6) (Mus musculus, UniProt Q8CIW6)", "T1 construct": "host or cells: Fischer rat thyroid (FRT) cells, lentiviral transduction (pLVX-IRES-mCherry-slc26a6), clonal line FRT-YFP-slc26a6", "T1 sequence (Q8CIW6 24-758 limits assumed)": "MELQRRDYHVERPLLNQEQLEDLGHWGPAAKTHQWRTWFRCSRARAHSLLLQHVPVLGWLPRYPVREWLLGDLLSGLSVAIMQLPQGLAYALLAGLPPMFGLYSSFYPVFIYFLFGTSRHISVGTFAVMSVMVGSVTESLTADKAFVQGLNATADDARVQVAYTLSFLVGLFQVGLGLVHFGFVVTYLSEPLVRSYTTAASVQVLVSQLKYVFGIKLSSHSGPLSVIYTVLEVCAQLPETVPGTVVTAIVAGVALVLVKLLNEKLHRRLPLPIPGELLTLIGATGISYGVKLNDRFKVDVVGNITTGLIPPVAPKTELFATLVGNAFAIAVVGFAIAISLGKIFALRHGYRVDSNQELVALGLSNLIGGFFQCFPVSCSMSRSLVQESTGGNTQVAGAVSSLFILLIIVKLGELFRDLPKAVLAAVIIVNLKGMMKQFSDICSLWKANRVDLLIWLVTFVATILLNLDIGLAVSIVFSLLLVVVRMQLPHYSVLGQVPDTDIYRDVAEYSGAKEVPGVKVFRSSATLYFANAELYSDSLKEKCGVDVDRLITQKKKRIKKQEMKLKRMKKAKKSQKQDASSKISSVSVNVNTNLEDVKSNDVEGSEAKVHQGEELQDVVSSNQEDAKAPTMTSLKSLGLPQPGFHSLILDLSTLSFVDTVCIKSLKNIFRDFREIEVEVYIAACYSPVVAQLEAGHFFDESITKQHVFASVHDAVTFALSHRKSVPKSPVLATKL", "test": "PAT1-mediated Cl-/I- exchange, YFP fluorescence quenching in FRT cells", "assay_type": "cell-based", "method": "A small-molecule screen was developed to identify PAT1 inhibitors utilizing transfected FRT cells expressing PAT1 (murine slc26a6) together with a halide-sensing cytoplasmic YFP (Figure 1A). Adherent cells in a 96-well format were subjected to an inward gradient of I^– to drive exchange of I^– for Cl^– and consequent quenching of the YFP fluorescence signal.\nA collection of approximately 50,000 diverse, drug-like synthetic small molecules (ChemDiv) was screened at a concentration of 25 μM using a Beckman Coulter BioMek FX liquid handling platform with FLUOstar OMEGA plate readers (BMG Labtech). FRT-YFP-slc26a6 cells were plated in 96-well black-walled, clear-bottom plates (Corning Life Sciences) at a density of 20,000 cells/well and cultured for 48 hours until confluent. Cells were washed twice in PBS and incubated for 10 minutes prior to assay in 100 μl PBS containing test compounds. For assay of slc26a6 function, baseline cellular fluorescence was measured for 2 seconds, after which 100 μl NaI-substituted PBS (140 mM NaCl replaced by 140 mM NaI) was added by syringe pump to drive Cl^–/I^– exchange. The initial rate of Cl^–/I^– exchange was determined by single exponential regression of the fluorescence time course. All assay plates contained wells with negative (1% DMSO) and positive (500 μM niflumic acid) controls. For structure-activity relationship studies, analogs of active compounds were purchased from ChemDiv."}, "CaCC": {"tested_on": "CaCC", "test": "Short-circuit current in well-differentiated HBE cells, ATP response", "assay_type": "cell-based, human", "conditions": "25 μM pretreatment", "method": "PAT1inh-B01 selectivity was studied by testing its effects on related SLC26A family anion transporters and the Cl^– channel TMEM16A. These measurements used a similar Cl^–/I^– exchange protocol, but FRT cells separately expressed each of the SLC26A family members or TMEM16A. […] PAT1inh-B01 selectivity was also tested by short-circuit current (Isc) in well-differentiated human bronchial epithelial (HBE) cells, which have a complex ion transport mechanism that includes cystic fibrosis transmembrane conductance regulator (CFTR), epithelial Na^+ channel (ENaC), and Ca^+2-activated chloride channels (CaCCs) ([13]). […] Potential PAT1inh-B01 cytotoxicity was studied in FRT cells.\nFigure 3 PAT1inh-B01 selectivity and cytotoxicity. […] Cl^–/I^– exchange or I^– influx measured in FRT cells coexpressing YFP and SLC26A isoforms or TMEM16A, with data shown for 25 μM PAT1inh-B01, DMSO vehicle control, and 500 μM niflumic acid (positive control for SLC26A transporters) or 10 μM TMinh-23 (positive control for TMEM16A). […] (C) (left) Short-circuit current (Isc) in well-differentiated HBE cells measured in the absence (top) and presence (bottom) of 25 μM PAT1inh-B01. […]\nYFP-based cellular assays of slc26a3, slc26a4, SLC26A9, and TMEM16A function were performed as described previously ([7]). […] The activities of ENaC, CFTR, and CaCC were determined using well-differentiated HBE cells as described previously ([13]). […]"}}, "note": "“And” between values parts separate entries of the source, which are not always exact repeats. Equal entries are not always repeated."}
{"compound": "Cc1c(Br)c(C(F)(F)F)nn1CC(=O)N1CCc2nc3cc(-c4ccccc4)[nH]n3c(=O)c2C1", "note": "[PAT1inh-B01]", "values": [{"measurement": "time to 50% inhibition of PAT1-mediated Cl-/I- exchange", "setting": "PAT1 (murine slc26a6); 1 μM", "result": "approximately 3 minutes"}, {"measurement": "IC50", "setting": "PAT1 (murine slc26a6); FRT cells expressing PAT1 and YFP, read-out: IC50, inhibition of PAT1-mediated Cl-/I- exchange", "result": "~350 nM and 350 nM"}, {"measurement": "inhibition at 25 µM", "setting": "PAT1 (murine slc26a6); FRT, 25 μM, primary screen", "result": "> 75", "unit": "%"}, {"measurement": "reversibility of inhibition following washout", "setting": "PAT1 (murine slc26a6); data not shown", "result": "fully reversible"}, {"measurement": "effect on CaCC activity (Isc response to ATP)", "setting": "CaCC", "result": "no significant effect"}]}
